# Test results published in PubChem BioAssay AID330 (DTP/NCI, 2004).
# Several values for one entry are separate records, joined by “and”; a condition that tells them apart may be missing. Equal entries are not always repeated. Toxic doses and inconclusive results are not listed. Square brackets hold non-standard residues; d marks the D form. Peptide text beside a SMILES is read from it. ξ: configuration not given here. ξE = NC(CCC(=O)O)C(=O)O
# Tested on: P388 leukemia ip, CD2F1 mice, survival T/C
# Assay: NCI In Vivo Anticancer Drug Screen. Data for tumor model P388 Leukemia (intraperitoneal) in CD2F1 (CDF1) mice
# Conditions: endpoint: median survival time, higher = longer survival
# How it was run: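 Mice carrying the transplanted tumor received test compound or vehicle. Survival was recorded in each group, and the value is the treated-group measurement divided by that of the vehicle-treated control group.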
# [1] = dose: 60.0 mg/kg/injection, schedule: Q01DX005 (ip), vehicle: saline with Tween-80
# [2] = dose: 120.0 mg/kg/injection, schedule: Q01DX005 (ip), vehicle: saline with Tween-80
# [3] = dose: 240.0 mg/kg/injection, schedule: Q01DX005 (ip), vehicle: saline with Tween-80
# [4] = dose: 50.0 mg/kg/injection, schedule: Q01DX005 (ip), vehicle: saline with Tween-80
# [5] = dose: 100.0 mg/kg/injection, schedule: Q01DX005 (ip), vehicle: saline with Tween-80
# [6] = dose: 12.5 mg/kg/injection, schedule: Q01DX009 (ip), vehicle: distilled water + Tween-80
# [7] = dose: 25.0 mg/kg/injection, schedule: Q01DX009 (ip), vehicle: distilled water + Tween-80
# [8] = dose: 50.0 mg/kg/injection, schedule: Q01DX009 (ip), vehicle: distilled water + Tween-80
# [9] = dose: 100.0 mg/kg/injection, schedule: Q01DX009 (ip), vehicle: distilled water + Tween-80
# [10] = dose: 200.0 mg/kg/injection, schedule: Q01DX009 (ip), vehicle: distilled water + Tween-80
# [11] = dose: 50.0 mg/kg/injection, schedule: Q01DX009 (ip), vehicle: saline with Tween-80
# [12] = dose: 100.0 mg/kg/injection, schedule: Q01DX009 (ip), vehicle: saline with Tween-80
# [13] = dose: 200.0 mg/kg/injection, schedule: Q01DX009 (ip), vehicle: saline with Tween-80
# [14] = dose: 25.0 mg/kg/injection, schedule: Q01DX005 (ip), vehicle: Klucel (hydroxypropylcellulose) (HPC)
# [15] = dose: 50.0 mg/kg/injection, schedule: Q01DX005 (ip), vehicle: Klucel (hydroxypropylcellulose) (HPC)
# [16] = dose: 100.0 mg/kg/injection, schedule: Q01DX005 (ip), vehicle: Klucel (hydroxypropylcellulose) (HPC)
# [17] = dose: 100.0 mg/kg/injection, schedule: Q04DX003 (ip), vehicle: saline
# [18] = dose: 200.0 mg/kg/injection, schedule: Q04DX003 (ip), vehicle: saline
# [19] = dose: 60.0 mg/kg/injection, schedule: Q01DX005 (ip), vehicle: Klucel (hydroxypropylcellulose) (HPC)
# [20] = dose: 120.0 mg/kg/injection, schedule: Q01DX005 (ip), vehicle: Klucel (hydroxypropylcellulose) (HPC)
# [21] = dose: 240.0 mg/kg/injection, schedule: Q01DX005 (ip), vehicle: Klucel (hydroxypropylcellulose) (HPC)
# [22] = dose: 100.0 mg/kg/injection, schedule: Q04DX003 (ip), vehicle: Klucel (hydroxypropylcellulose) (HPC)
# [23] = dose: 200.0 mg/kg/injection, schedule: Q04DX003 (ip), vehicle: Klucel (hydroxypropylcellulose) (HPC)
# [24] = dose: 200.0 mg/kg/injection, schedule: Q01DX005 (ip), vehicle: Klucel (hydroxypropylcellulose) (HPC)
compound,measurement,setting,value
O=C1c2ccccc2C(=O)N1CCc1ncc[nH]1,T/C,[1],99 % of control
same,T/C,[2],99 % of control
same,T/C,[3],100 % of control
O=c1c(O)c(O)c1=O.[NH2-].[NH2-].[NH2-].[NH2-].[NH2-].[Ru+5],T/C,"dose: 10.56 mg/kg/injection, schedule: Q04DX002 (ip), vehicle: suspension in saline",121 % of control
CCOC(=O)C(SC#N)[Se]c1ccccc1 (stereo not drawn),T/C,[4],106 % of control
same,T/C,[5],109 % of control
C[As](C)SCC1OC(n2cnc3c(N)ncnc32)C2OC(C)(C)OC12 (stereo not drawn),T/C,[6],101 % of control
same,T/C,[7],100 % of control
same,T/C,[8],110 % of control
same,T/C,[9],110 % of control
same,T/C,[10],101 % of control
NCC(=O)NCC(=O)NC(CCC(=O)O)C(=O)O (stereo not drawn) (H-Gly-Gly-[ξE]-OH),T/C,"dose: 50.0 mg/kg/injection, schedule: Q01DX005 (ip), vehicle: saline",100 % of control
same,T/C,"dose: 100.0 mg/kg/injection, schedule: Q01DX005 (ip), vehicle: saline",101 % of control
same,T/C,"dose: 200.0 mg/kg/injection, schedule: Q01DX005 (ip), vehicle: saline",104 % of control
C[N+](C)(C)/N=C(\[O-])Nc1ccccc1,T/C,[11],100 % of control
same,T/C,[12],104 % of control
same,T/C,[13],89 % of control
CC(CN)c1ccccc1 (stereo not drawn),T/C,"dose: 12.5 mg/kg/injection, schedule: Q01DX009 (ip), vehicle: saline",111 % of control
same,T/C,"dose: 25.0 mg/kg/injection, schedule: Q01DX009 (ip), vehicle: saline",101 % of control
same,T/C,"dose: 50.0 mg/kg/injection, schedule: Q01DX009 (ip), vehicle: saline",101 % of control and 103 % of control
COC1/C=C/OC2(C)Oc3c(C)c(O)c4c(c3C2=O)C(=O)C=C(NC(=O)/C(C)=C\C=C\C(C)C(OC=O)C(C)C(O)C(C)C(OC(C)=O)C1C)C4=O (stereo not drawn),T/C,[11],100 % of control
same,T/C,[12],92 % of control
same,T/C,[13],91 % of control
COc1ccc(OC)c(C(=O)c2ccccc2C(=O)O)c1,T/C,[14],102 % of control
same,T/C,[15],100 % of control
same,T/C,[16],96 % of control
O=C(Nc1ccc(Cc2ccc(NC(=O)C(c3ccccc3)c3ccccc3)cc2)cc1)C(c1ccccc1)c1ccccc1,T/C,[4],86 % of control
same,T/C,[5],95 % of control
same,T/C,"dose: 200.0 mg/kg/injection, schedule: Q01DX005 (ip), vehicle: saline with Tween-80",92 % of control
CNC(=O)Nc1ccnc(=O)[nH]1,T/C,[15],116 % of control
O=C(NC1CCCCC1)OCc1c(COC(=O)NC2CCCCC2)c(-c2ccc(Cl)c(Cl)c2)n2c1CCCC2,T/C,[6],96 % of control
same,T/C,[7],89 % of control and 91 % of control
same,T/C,[8],87 % of control and 96 % of control
same,T/C,[9],99 % of control and 100 % of control
same,T/C,[10],99 % of control and 116 % of control
same,T/C,"dose: 400.0 mg/kg/injection, schedule: Q01DX009 (ip), vehicle: distilled water + Tween-80",116 % of control
CC1(C)N=C(N)N=C(N)N1c1cccc(CCC(=O)Nc2ccc(S(=O)(=O)F)cc2)c1,T/C,"dose: 18.8 mg/kg/injection, schedule: Q01DX009 (ip), vehicle: saline with Tween-80",116 % of control and 118 % of control
same,T/C,"dose: 37.5 mg/kg/injection, schedule: Q01DX009 (ip), vehicle: saline with Tween-80",115 % of control and 118 % of control
same,T/C,"dose: 150.0 mg/kg/injection, schedule: Q01DX009 (ip), vehicle: saline with Tween-80",107 % of control
CN=C(N)N/N=C(\C)c1ccc(/C(C)=N/NC(N)=NC)cc1,T/C,"dose: 25.0 mg/kg/injection, schedule: Q04DX002 (ip), vehicle: saline with Tween-80",112 % of control
CCC(SC)C(=O)c1ccccc1 (stereo not drawn),T/C,"dose: 25.0 mg/kg/injection, schedule: Q01DX009 (ip), vehicle: saline with Tween-80",114 % of control
same,T/C,[11],100 % of control
same,T/C,[12],101 % of control
C1=NCCCCCCCN=Cc2ccccc2NCCNc2ccccc21,T/C,[17],94 % of control
same,T/C,[18],92 % of control
same,T/C,"dose: 400.0 mg/kg/injection, schedule: Q04DX003 (ip), vehicle: saline",108 % of control
CCc1cccc(CC)c1N1CC(C(=O)O)CC1=O (stereo not drawn),T/C,[19],107 % of control
same,T/C,[20],101 % of control
same,T/C,[21],101 % of control
CCCCCCc1cc(-c2cc(CCCCCC)[nH]n2)n[nH]1,T/C,[19],100 % of control
same,T/C,[20],98 % of control
same,T/C,[21],95 % of control
FC(F)(F)SN1CN(SC(F)(F)F)CN(SC(F)(F)F)CN(SC(F)(F)F)CN(SC(F)(F)F)C1,T/C,"dose: 60.0 mg/kg/injection, schedule: Q01DX005 (ip), vehicle: saline",92 % of control
same,T/C,"dose: 120.0 mg/kg/injection, schedule: Q01DX005 (ip), vehicle: saline",92 % of control
Cc1cc(C)[nH]c(=O)c1,T/C,[12],100 % of control
same,T/C,[13],100 % of control
same,T/C,"dose: 400.0 mg/kg/injection, schedule: Q01DX009 (ip), vehicle: saline with Tween-80",109 % of control
COC(=O)C1(CC(=O)c2c(C)[nH]c3ccccc23)NC(=S)NC(=O)C1C#N (stereo not drawn),T/C,[19],100 % of control
same,T/C,[20],100 % of control
same,T/C,[21],100 % of control
CC1(C)CNC(=S)O1,T/C,"dose: 6.25 mg/kg/injection, schedule: Q01DX009 (ip), vehicle: Klucel (hydroxypropylcellulose) (HPC)",107 % of control
same,T/C,"dose: 12.5 mg/kg/injection, schedule: Q01DX009 (ip), vehicle: Klucel (hydroxypropylcellulose) (HPC)",100 % of control
same,T/C,"dose: 25.0 mg/kg/injection, schedule: Q01DX009 (ip), vehicle: Klucel (hydroxypropylcellulose) (HPC)",88 % of control and 89 % of control
O=C(CNC(=O)c1ccccc1)N/N=C\c1c[nH]c2ccccc12,T/C,[1],101 % of control
same,T/C,[2],100 % of control
same,T/C,[3],96 % of control
Cc1cccc(Nc2cc(=O)[nH]c(=O)[nH]2)c1,T/C,[22],110 % of control
same,T/C,[23],98 % of control
CCCn1c(CC)nc([N+](=O)[O-])c1Sc1ncnc2nc[nH]c12,T/C,"dose: 12.5 mg/kg/injection, schedule: Q01DX005 (ip), vehicle: Klucel (hydroxypropylcellulose) (HPC)",107 % of control
same,T/C,[14],123 % of control
same,T/C,[24],111 % of control
CC1COCCOC(=O)COCC(=O)OCCOCC(C)O1 (stereo not drawn),T/C,[22],107 % of control
same,T/C,[23],103 % of control
same,T/C,"dose: 400.0 mg/kg/injection, schedule: Q04DX003 (ip), vehicle: Klucel (hydroxypropylcellulose) (HPC)",93 % of control
CC1(c2ccccn2)C(=O)c2ccccc2C1=O,T/C,[15],98 % of control
same,T/C,[16],100 % of control
same,T/C,[24],99 % of control
N#CC(C(=O)C(N)=O)c1nc2ccccc2s1 (stereo not drawn),T/C,[4],105 % of control
same,T/C,[5],101 % of control
CCCn1c(C)nc2cc(C)cc(N)c21,T/C,"dose: 12.5 mg/kg/injection, schedule: Q01DX005 (ip), vehicle: saline with Tween-80",100 % of control
same,T/C,"dose: 25.0 mg/kg/injection, schedule: Q01DX005 (ip), vehicle: saline with Tween-80",89 % of control
same,T/C,[4],90 % of control and 94 % of control
COC(=O)C1CP2(C)(C)N(C)C(=O)N2C1(c1ccccc1)c1ccccc1 (stereo not drawn),T/C,[15],102 % of control
same,T/C,[16],102 % of control
same,T/C,[24],112 % of control
O=C1OC(CO)C(O)C2OC(=O)c3c(c(O)c(O)c(O)c3-c3c(O)c(O)c(O)c4c3C(=O)OC2C4O)-c2c1cc(O)c(O)c2O (stereo not drawn),T/C,"dose: 1.56 mg/kg/injection, schedule: Q01DX009 (ip), vehicle: saline",105 % of control
same,T/C,"dose: 3.12 mg/kg/injection, schedule: Q01DX009 (ip), vehicle: saline",105 % of control
same,T/C,"dose: 6.25 mg/kg/injection, schedule: Q01DX009 (ip), vehicle: saline",90 % of control
CC1=C(C)C(C)(C)OC1=O,T/C,"dose: 100.0 mg/kg/injection, schedule: Q01DX001 (ip), vehicle: saline with Tween-80",100 % of control
same,T/C,"dose: 200.0 mg/kg/injection, schedule: Q01DX001 (ip), vehicle: saline with Tween-80",100 % of control
same,T/C,"dose: 400.0 mg/kg/injection, schedule: Q01DX001 (ip), vehicle: saline with Tween-80",104 % of control
NC(COC(c1ccccc1)(c1ccccc1)c1ccccc1)C(=O)O (stereo not drawn),T/C,[17],118 % of control
same,T/C,[18],154 % of control
